Like-named read-outs stand apart in the source and are kept apart here. Bridge positions count the residues as written; N and C are the ends. Square brackets hold non-standard residues; d marks the D form. Peptide text beside a SMILES is read from it. * marks the point of attachment. Ileψ(thiazoline)Cys = CC[C@H](C)[C@H](N)C1=N[C@H](C(=O)*)CS1; dOrn = NCCC[C@@H](N)C(=O)O

The test system of assay [1] is Clostridium perfringens CP-013. The format is in vivo, broiler chicken. Conditions: for % Weight gain 1 to 14 d / % Weight gain 1 to 28 d / % Weight gain 14 to 28 d: [(final weight − initial weight)/initial weight] × 100; for Mean body weight (g) 1-d: day 1 (starting weight), n = 30.
For assay [2], the system named is Clostridium perfringens. It counts as in vivo, broiler chicken. Conditions: for Mean CFU per gram of chicken feces on Day 28 (n = 24): final day of study; for Mean CFU per gram of chicken feces on Day 21 (n = 6): five days after final challenge; for Mean CFU per gram of chicken feces on Day 10 (n = 10): pre-challenge.

With `CC[C@H](C)[C@H](N)C1=N[C@H](C(=O)N[C@@H](CC(C)C)C(=O)N[C@H](CCC(=O)O)C(=O)N[C@H](C(=O)N[C@H]2CCCCNC(=O)[C@H](CC(N)=O)NC(=O)[C@@H](CC(=O)O)NC(=O)[C@H](Cc3cnc[nH]3)NC(=O)[C@@H](Cc3ccccc3)NC(=O)[C@H]([C@@H](C)CC)NC(=O)[C@@H](CCCN)NC2=O)[C@@H](C)CC)CS1` [Bacitracin] ({Ileψ(thiazoline)Cys}-L[dE]IK[dOrn]I[dF]H[dD]N; lactam 4-C), in assay [1] (55 ppm in feed), the “% Weight gain 1 to 14 d” value stood at 941.1%, the “% Weight gain 1 to 28 d” value is listed as 3566.0%, the “% Weight gain 14 to 28 d” value came out at 252.1% and the “Mean body weight (g) 1-d” value came to 44.4 g. In assay [2] (55 ppm in feed), the “Mean CFU per gram of chicken feces on Day 28 (n = 24)” value amounted to 0.0 CFU per gram, the “Mean CFU per gram of chicken feces on Day 21 (n = 6)” value is listed as 2.5 × 10^1 ± 9.6 ^ CFU per gram and the “Mean CFU per gram of chicken feces on Day 10 (n = 10)” value was 8.6 × 10^2 ± 1.6 × 10^2 CFU per gram.
As to Virginiamycin, in assay [1] (2 ppm in feed), the “% Weight gain 1 to 14 d” value is 1024.7%, the “% Weight gain 1 to 28 d” value came out at 3532.8%, the “% Weight gain 14 to 28 d” value was 223.0% and the “Mean body weight (g) 1-d” value was determined as 44.5 g. Moreover, in assay [2] (2 ppm in feed), the “Mean CFU per gram of chicken feces on Day 28 (n = 24)” value is reported as 0.0 CFU per gram, the “Mean CFU per gram of chicken feces on Day 21 (n = 6)” value is 0.0 CFU per gram and the “Mean CFU per gram of chicken feces on Day 10 (n = 10)” value is 1.1 × 10^3 ± 2.2 × 10^2 CFU per gram.

For the origin of these results see US20180139985A1 (priority 2015, published 2018).
